For 8 compounds, MIC results are on record in ChEMBL document CHEMBL5634180, “Serratiomycins D1-D3, Antibacterial Cyclic Peptides from a Serratia sp. and Structure Revision of Serratiomycin” (2024).

In one assay the test system is Escherichia coli. Briefly: Antibacterial activity against Escherichia coli ATCC 25922 incubated for 16 to 20 hrs. The settings on record: time 16-20 hrs. In kind it is functional.
Another assay relates to Enterococcus faecium. As to the kind of experiment: Antibacterial activity against Enterococcus faecium ATCC 19434 incubated for 16 to 20 hrs. Type of assay: functional. The settings on record: time 16-20 hrs.
In assay [1] the test system is Trichophyton mentagrophytes. As to the kind of experiment: Antifungal activity against Trichophyton mentagrophytes IFM40996 incubated for 16 to 20 hrs. In kind it is functional. The settings on record: time 16-20 hrs.
The next assay concerns Trichophyton rubrum. As to the kind of experiment: Antifungal activity against Trichophyton rubrum NBRC9185 incubated for 16 to 20 hrs. The following applies: time 16-20 hrs. In kind it is functional.
A further assay relates to Aspergillus fumigatus. As to the kind of experiment: Antifungal activity against Aspergillus fumigatus HIC6094 incubated for 16 to 20 hrs. Type of assay: functional. The settings on record: time 16-20 hrs.
The test system of a further assay is Salmonella enterica. As to the kind of experiment: microbe, parasite or virus in culture. The following applies: ATCC 14028.
In another assay the test system is Candida albicans. As to the kind of experiment: Antifungal activity against Candida albicans ATCC 10231 incubated for 16 to 20 hrs. In kind it is functional. The following applies: time 16-20 hrs.
The subject of another assay is Enterococcus faecalis. Briefly: Antibacterial activity against Enterococcus faecalis ATCC 19433 incubated for 16 to 20 hrs. In kind it is functional. The following applies: time 16-20 hrs.
The next assay deals with Staphylococcus aureus. As to the kind of experiment: Antibacterial activity against Staphylococcus aureus ATCC 25923 incubated for 16 to 20 hrs. Type of assay: functional. The settings on record: time 16-20 hrs.
For the next assay, the system named is Klebsiella pneumoniae. Briefly: Antibacterial activity against Klebsiella pneumoniae ATCC 10031 incubated for 16 to 20 hrs. Type of assay: functional. The following applies: time 16-20 hrs.

≈ marks a conversion by molar mass, not a printed value.

Description for Salmonella enterica: Antibacterial activity against Salmonella enterica ATCC 14028 incubated for 16 to 20 hrs

For the compound `CCCCCCCCC[C@@H]1CC(=O)N[C@H](CC(C)C)C(=O)N[C@@H](CO)C(=O)N[C@@H]([C@@H](C)O)C(=O)N[C@H](Cc2ccccc2)C(=O)N[C@@H]([C@H](C)CC)C(=O)O1`, the MIC against Escherichia coli is more than 128 µg/mL; with Enterococcus faecium it was 32 µg/mL (≈ 42.1 µM); in assay [1], more than 128 µg/mL; in the assay with Trichophyton rubrum, more than 128 µg/mL; in the assay on Aspergillus fumigatus it was more than 128 µg/mL; against Salmonella enterica it was 16 µg/mL (≈ 21.1 µM). The MIC in the assay with Candida albicans was more than 128 µg/mL; in the assay on Enterococcus faecalis it was 64 µg/mL (≈ 84.2 µM); against Staphylococcus aureus, 16 µg/mL (≈ 21.1 µM); with Klebsiella pneumoniae it was more than 128 µg/mL.
The compound `CN(C)[C@@H]1C(O)=C(C(N)=O)C(=O)[C@@]2(O)C(O)=C3C(=O)c4c(O)cccc4[C@@](C)(O)[C@H]3C[C@@H]12` [TETRACYCLINE] came in with an MIC in the assay on Klebsiella pneumoniae of 0.25 µg/mL (≈ 0.563 µM).
With `CCCCCCC[C@@H]1CC(=O)N[C@H](CC(C)C)C(=O)N[C@@H](CO)C(=O)N[C@@H]([C@@H](C)O)C(=O)N[C@H](Cc2ccc(O)cc2)C(=O)N[C@@H](C(C)C)C(=O)O1`, the MIC (in the assay with Escherichia coli; with Enterococcus faecium; in assay [1]; with Trichophyton rubrum; with Aspergillus fumigatus; against Salmonella enterica) was more than 128 µg/mL in each case. In addition, the MIC against Candida albicans, with Enterococcus faecalis, with Staphylococcus aureus and against Klebsiella pneumoniae was more than 128 µg/mL throughout.
As for `CC1(C)S[C@@H]2[C@H](NC(=O)[C@H](N)c3ccccc3)C(=O)N2[C@H]1C(=O)O` [AMPICILLIN], the MIC against Escherichia coli was 8 µg/mL (≈ 22.9 µM); against Enterococcus faecium, 0.5 µg/mL (≈ 1.43 µM); in the assay with Salmonella enterica it was 0.5 µg/mL (≈ 1.43 µM); against Enterococcus faecalis, 0.5 µg/mL (≈ 1.43 µM); against Staphylococcus aureus it was 0.13 µg/mL (≈ 0.372 µM); against Klebsiella pneumoniae, more than 128 µg/mL.
For the compound `CCCCCCC[C@@H]1CC(=O)N[C@H](CC(C)C)C(=O)N[C@@H](CO)C(=O)N[C@@H]([C@@H](C)O)C(=O)N[C@H](Cc2ccccc2)C(=O)N[C@@H]([C@H](C)CC)C(=O)O1`, the MIC in the assay with Escherichia coli is more than 128 µg/mL; against Enterococcus faecium it was 32 µg/mL (≈ 43.7 µM); in [1], more than 128 µg/mL; against Trichophyton rubrum, more than 128 µg/mL; against Aspergillus fumigatus, more than 128 µg/mL; against Salmonella enterica it was 32 µg/mL (≈ 43.7 µM). Also, the MIC against Candida albicans is more than 128 µg/mL; in the assay on Enterococcus faecalis, 32 µg/mL (≈ 43.7 µM); against Staphylococcus aureus, 32 µg/mL (≈ 43.7 µM); in the assay on Klebsiella pneumoniae it was more than 128 µg/mL.
As to `CCCCCCC[C@@H](O)CC(=O)N[C@H](CC(C)C)C(=O)N[C@@H](CO)C(=O)N[C@H](C(=O)N[C@H](Cc1ccccc1)C(=O)N[C@H](C(=O)OC)[C@H](C)CC)[C@@H](C)O`, the MIC (in the assay on Escherichia coli; against Enterococcus faecium; in assay [1]; in the assay on Trichophyton rubrum; against Aspergillus fumigatus; against Salmonella enterica) was more than 128 µg/mL each time. For the same compound, the MIC against Candida albicans, in the assay on Enterococcus faecalis, against Staphylococcus aureus and in the assay with Klebsiella pneumoniae was more than 128 µg/mL each time.
`C[C@@H]1[C@H](O)[C@@H](C)/C=C/C=C/C=C/C=C/C=C/C=C/C=C/[C@H](O[C@@H]2O[C@H](C)[C@@H](O)[C@H](N)[C@@H]2O)C[C@@H]2O[C@](O)(C[C@@H](O)C[C@@H](O)[C@H](O)CC[C@@H](O)C[C@@H](O)CC(=O)O[C@H]1C)C[C@H](O)[C@H]2C(=O)O` [AMPHOTERICIN B]: the MIC is 1 µg/mL (≈ 1.08 µM) in [1], 1 µg/mL (≈ 1.08 µM) with Trichophyton rubrum, 1 µg/mL (≈ 1.08 µM) against Aspergillus fumigatus and 0.5 µg/mL (≈ 0.541 µM) against Candida albicans.
For `CCCCCC/C=C\C[C@@H]1CC(=O)N[C@H](CC(C)C)C(=O)N[C@@H](CO)C(=O)N[C@@H]([C@@H](C)O)C(=O)N[C@H](Cc2ccccc2)C(=O)N[C@@H]([C@H](C)CC)C(=O)O1`, the MIC is more than 128 µg/mL in the assay on Escherichia coli; 32 µg/mL (≈ 42.2 µM) against Enterococcus faecium; more than 128 µg/mL in [1]; more than 128 µg/mL in the assay on Trichophyton rubrum; more than 128 µg/mL in the assay with Aspergillus fumigatus; 8 µg/mL (≈ 10.6 µM) in the assay with Salmonella enterica. Also, the MIC is more than 128 µg/mL against Candida albicans, 32 µg/mL (≈ 42.2 µM) against Enterococcus faecalis, 16 µg/mL (≈ 21.1 µM) against Staphylococcus aureus and more than 128 µg/mL with Klebsiella pneumoniae.
